System: Acinetobacter baumannii strains
Test: Antibiotic susceptibility test (CLSI disk diffusion test method, read per CLSI 2016); on antibiotic susceptibility S/I/R: key: ‘S’ means susceptible; ‘I’ means intermediate; ‘R’ means resistant; on susceptibility category (S/I/R): key: ‘S’ means susceptible; ‘I’ means intermediate; ‘R’ means resistant
Assay type: cell-based
Parameters: antibiotic susceptibility test value / susceptibility test value (number given before S/I/R) / antibiotic susceptibility value: unit not given here

ampicillin-sulbactam
4: antibiotic susceptibility value (host strain YMC16/03/R4461) | susceptibility test value (number given before S/I/R) (host strain YMC16/03/R4461)
S: antibiotic susceptibility S/I/R (host strain YMC16/01/R198) | susceptibility category (S/I/R) (host strain YMC16/01/R198) | antibiotic susceptibility S/I/R (host strain YMC16/03/R4461) | susceptibility category (S/I/R) (host strain YMC16/03/R4461) | antibiotic susceptibility S/I/R (host strain YMC17/01/B8053) | susceptibility category (S/I/R) (host strain YMC17/01/B8053) | antibiotic susceptibility S/I/R (host strain YMC17/02/B4864) | susceptibility category (S/I/R) (host strain YMC17/02/B4864) | antibiotic susceptibility S/I/R (host strain YMC17/03/P971) | susceptibility category (S/I/R) (host strain YMC17/03/P971) | antibiotic susceptibility S/I/R (host strain YMC17/03/R1888) | susceptibility category (S/I/R) (host strain YMC17/03/R1888)
2: antibiotic susceptibility value (host strain YMC17/02/B4864) | susceptibility test value (number given before S/I/R) (host strain YMC17/02/B4864)
I: susceptibility category (S/I/R) (host strain YMC16/01/R353) | susceptibility category (S/I/R) (host strain YMC16/01/R405) | susceptibility category (S/I/R) (host strain YMC16/05/R2210) | susceptibility category (S/I/R) (host strain YMC16/07/R2512) | susceptibility category (S/I/R) (host strain YMC16/10/R2537) | susceptibility category (S/I/R) (host strain YMC16/12/B13325) | susceptibility category (S/I/R) (host strain YMC17/01/B10087) | susceptibility category (S/I/R) (host strain YMC17/01/B12075) | susceptibility category (S/I/R) (host strain YMC17/01/P518) | susceptibility category (S/I/R) (host strain YMC17/02/B87) | susceptibility category (S/I/R) (host strain YMC17/02/B8414) | susceptibility category (S/I/R) (host strain YMC17/02/P523) | susceptibility category (S/I/R) (host strain YMC17/03/B4730) | susceptibility category (S/I/R) (host strain YMC17/03/R348) | susceptibility category (S/I/R) (host strain YMC17/03/R3279) | susceptibility category (S/I/R) (host strain YMC17/03/R4077) | susceptibility category (S/I/R) (host strain YMC17/03/R4607) | susceptibility category (S/I/R) (host strain YMC17/04/R488) | susceptibility category (S/I/R) (host strain YMC17/04/R640) | susceptibility category (S/I/R) (host strain YMC/17/05/R1095)
R: susceptibility category (S/I/R) (host strain YMC16/01/R123) | antibiotic susceptibility S/I/R (host strain YMC16/01/R380) | susceptibility category (S/I/R) (host strain YMC16/01/R380) | antibiotic susceptibility S/I/R (host strain YMC16/01/R397) | susceptibility category (S/I/R) (host strain YMC16/01/R397) | antibiotic susceptibility S/I/R (host strain YMC16/09/R2471) | susceptibility category (S/I/R) (host strain YMC16/09/R2471) | antibiotic susceptibility S/I/R (host strain YMC16/12/B11422) | susceptibility category (S/I/R) (host strain YMC16/12/B11422) | antibiotic susceptibility S/I/R (host strain YMC16/12/B11449) | susceptibility category (S/I/R) (host strain YMC16/12/B11449) | antibiotic susceptibility S/I/R (host strain YMC16/12/P503) | susceptibility category (S/I/R) (host strain YMC16/12/P503) | antibiotic susceptibility S/I/R (host strain YMC16/12/R4637) | susceptibility category (S/I/R) (host strain YMC16/12/R4637) | antibiotic susceptibility S/I/R (host strain YMC17/01/B13454) | susceptibility category (S/I/R) (host strain YMC17/01/B13454) | antibiotic susceptibility S/I/R (host strain YMC17/01/R2812) | susceptibility category (S/I/R) (host strain YMC17/01/R2812) | antibiotic susceptibility S/I/R (host strain YMC17/02/B14) | susceptibility category (S/I/R) (host strain YMC17/02/B14) | antibiotic susceptibility S/I/R (host strain YMC17/02/B721) | susceptibility category (S/I/R) (host strain YMC17/02/B721) | antibiotic susceptibility S/I/R (host strain YMC17/02/B4039) | susceptibility category (S/I/R) (host strain YMC17/02/B4039) | antibiotic susceptibility S/I/R (host strain YMC17/02/B4520) | susceptibility category (S/I/R) (host strain YMC17/02/B4520) | antibiotic susceptibility S/I/R (host strain YMC17/02/R541) | susceptibility category (S/I/R) (host strain YMC17/02/R541) | antibiotic susceptibility S/I/R (host strain YMC17/02/R2392) | susceptibility category (S/I/R) (host strain YMC17/02/R2392) | antibiotic susceptibility S/I/R (host strain YMC17/03/B5000) | susceptibility category (S/I/R) (host strain YMC17/03/B5000) | antibiotic susceptibility S/I/R (host strain YMC17/03/R585) | susceptibility category (S/I/R) (host strain YMC17/03/R585)
32: antibiotic susceptibility value (host strain YMC16/01/R123) | susceptibility test value (number given before S/I/R) (host strain YMC16/01/R123) | antibiotic susceptibility value (host strain YMC16/01/R380) | susceptibility test value (number given before S/I/R) (host strain YMC16/01/R380) | antibiotic susceptibility value (host strain YMC16/01/R397) | susceptibility test value (number given before S/I/R) (host strain YMC16/01/R397) | antibiotic susceptibility value (host strain YMC16/09/R2471) | susceptibility test value (number given before S/I/R) (host strain YMC16/09/R2471) | antibiotic susceptibility value (host strain YMC16/12/B11422) | susceptibility test value (number given before S/I/R) (host strain YMC16/12/B11422) | antibiotic susceptibility value (host strain YMC16/12/B11449) | susceptibility test value (number given before S/I/R) (host strain YMC16/12/B11449) | antibiotic susceptibility value (host strain YMC16/12/P503) | susceptibility test value (number given before S/I/R) (host strain YMC16/12/P503) | antibiotic susceptibility value (host strain YMC16/12/R4637) | susceptibility test value (number given before S/I/R) (host strain YMC16/12/R4637) | antibiotic susceptibility value (host strain YMC17/01/B13454) | susceptibility test value (number given before S/I/R) (host strain YMC17/01/B13454) | antibiotic susceptibility value (host strain YMC17/01/R2812) | susceptibility test value (number given before S/I/R) (host strain YMC17/01/R2812) | antibiotic susceptibility value (host strain YMC17/02/B14) | susceptibility test value (number given before S/I/R) (host strain YMC17/02/B14) | antibiotic susceptibility value (host strain YMC17/02/B721) | susceptibility test value (number given before S/I/R) (host strain YMC17/02/B721) | antibiotic susceptibility value (host strain YMC17/02/B4039) | susceptibility test value (number given before S/I/R) (host strain YMC17/02/B4039) | antibiotic susceptibility value (host strain YMC17/02/B4520) | susceptibility test value (number given before S/I/R) (host strain YMC17/02/B4520) | antibiotic susceptibility value (host strain YMC17/02/R541) | susceptibility test value (number given before S/I/R) (host strain YMC17/02/R541) | antibiotic susceptibility value (host strain YMC17/02/R2392) | susceptibility test value (number given before S/I/R) (host strain YMC17/02/R2392) | antibiotic susceptibility value (host strain YMC17/03/B5000) | susceptibility test value (number given before S/I/R) (host strain YMC17/03/B5000) | antibiotic susceptibility value (host strain YMC17/03/R585) | susceptibility test value (number given before S/I/R) (host strain YMC17/03/R585)
16: antibiotic susceptibility value (host strain YMC16/01/R353) | susceptibility test value (number given before S/I/R) (host strain YMC16/01/R353) | antibiotic susceptibility value (host strain YMC16/01/R405) | susceptibility test value (number given before S/I/R) (host strain YMC16/01/R405) | antibiotic susceptibility value (host strain YMC16/05/R2210) | susceptibility test value (number given before S/I/R) (host strain YMC16/05/R2210) | antibiotic susceptibility value (host strain YMC16/07/R2512) | susceptibility test value (number given before S/I/R) (host strain YMC16/07/R2512) | antibiotic susceptibility value (host strain YMC16/10/R2537) | susceptibility test value (number given before S/I/R) (host strain YMC16/10/R2537) | antibiotic susceptibility value (host strain YMC16/12/B13325) | susceptibility test value (number given before S/I/R) (host strain YMC16/12/B13325) | antibiotic susceptibility value (host strain YMC17/01/B10087) | susceptibility test value (number given before S/I/R) (host strain YMC17/01/B10087) | antibiotic susceptibility value (host strain YMC17/01/B12075) | susceptibility test value (number given before S/I/R) (host strain YMC17/01/B12075) | antibiotic susceptibility value (host strain YMC17/01/P518) | susceptibility test value (number given before S/I/R) (host strain YMC17/01/P518) | antibiotic susceptibility value (host strain YMC17/02/B87) | susceptibility test value (number given before S/I/R) (host strain YMC17/02/B87) | antibiotic susceptibility value (host strain YMC17/02/B8414) | susceptibility test value (number given before S/I/R) (host strain YMC17/02/B8414) | antibiotic susceptibility value (host strain YMC17/02/P523) | susceptibility test value (number given before S/I/R) (host strain YMC17/02/P523) | antibiotic susceptibility value (host strain YMC17/03/B4730) | susceptibility test value (number given before S/I/R) (host strain YMC17/03/B4730) | antibiotic susceptibility value (host strain YMC17/03/R348) | susceptibility test value (number given before S/I/R) (host strain YMC17/03/R348) | antibiotic susceptibility value (host strain YMC17/03/R3279) | susceptibility test value (number given before S/I/R) (host strain YMC17/03/R3279) | antibiotic susceptibility value (host strain YMC17/03/R4077) | susceptibility test value (number given before S/I/R) (host strain YMC17/03/R4077) | antibiotic susceptibility value (host strain YMC17/03/R4607) | susceptibility test value (number given before S/I/R) (host strain YMC17/03/R4607) | antibiotic susceptibility value (host strain YMC17/04/R488) | susceptibility test value (number given before S/I/R) (host strain YMC17/04/R488) | antibiotic susceptibility value (host strain YMC17/04/R640) | susceptibility test value (number given before S/I/R) (host strain YMC17/04/R640) | antibiotic susceptibility value (host strain YMC/17/05/R1095) | susceptibility test value (number given before S/I/R) (host strain YMC/17/05/R1095)
8: antibiotic susceptibility value (host strain YMC16/01/R198) | susceptibility test value (number given before S/I/R) (host strain YMC16/01/R198) | antibiotic susceptibility value (host strain YMC17/01/B8053) | susceptibility test value (number given before S/I/R) (host strain YMC17/01/B8053) | antibiotic susceptibility value (host strain YMC17/03/P971) | susceptibility test value (number given before S/I/R) (host strain YMC17/03/P971) | antibiotic susceptibility value (host strain YMC17/03/R1888) | susceptibility test value (number given before S/I/R) (host strain YMC17/03/R1888)
